Reference: US10501817B2, “Process for the manufacture of co-crystallized sucrose natural sweeteners and the products thereof” (IMPERIAL SUGAR COMPANY, priority 2010, dated 2019)

What was measured:
[1] = cited from earlier work; for times sweeter than sucrose: sweetness relative to sucrose/sugar
[2] = Taste testing of sweetener compositions in water by trained descriptive panel; assay type: in vivo, human; details: in water at room temperature; 12-point scale; aftertaste at 30 seconds
From the text: A panel of trained and experienced descriptive panelists (Food Marketing Support Services, Inc.) tasted, described and documented sensory behavior of selected sweetener compositions in water at ambient (room) temperature. The sweetener samples tested were: sugar (100%; Imperial Sugar); Truvia (100%), a consumer brand Stevia sweetener containing a mixture erythritol and Rebiana; Reb-A 97 (100%; Pure Circle), a sugar (75% reduction)—rebaudioside A blended or granulized mixture; a sugar (50% reduction)—rebaudioside A blended or granulized mixture; a sugar/rebaudioside A co-crystallization product in accordance with the instantly described process and the resultant product with a 50% calorie reduction (Co-Crystal (50% Reduction)); and, a sugar/rebaudioside A co-crystallization product in accordance with the instantly described process and the resultant product with a 75% calorie reduction (Co-Crystal (75% Reduction).
Sample Preparation: On the day of the testing panel, a predetermined weight of sugar or sweetener was weighed out. […]
The beaker is gently swirled five (5) times, and the watch glass cover is removed. […] Sweetness was evaluated relative to standardized concentrations of sucrose in water. Samples were also evaluated for character nuances and quantifying attribute intensities such as residual mouth sensations and aftertastes, using a 12-point scale. […]

C=C1C[C@@]23CC[C@H]4[C@@](C)(CCC[C@@]4(C)C(=O)O[C@@H]4O[C@H](CO)[C@@H](O)[C@H](O)[C@H]4O)[C@@H]2CC[C@]1(O[C@@H]1O[C@H](CO)[C@@H](O)[C@H](O[C@@H]2O[C@H](CO)[C@@H](O)[C@H](O)[C@H]2O)[C@H]1O[C@@H]1O[C@H](CO)[C@@H](O)[C@H](O)[C@H]1O)C3 [rebaudioside A]
astringency, bitterness and aftertaste among diterpenoid glycoside sweeteners of Stevia extracts ([1]; in vivo): the least astringent, the least bitter, and with the least persistent aftertaste | times sweeter than sucrose [1]: 200-300 times | flavor/taste profile compared with pure sugar [2]: most extreme flavor profile across the array

C=C1C[C@@]23CC[C@H]4[C@@](C)(CCC[C@@]4(C)C(=O)O[C@@H]4O[C@H](CO)[C@@H](O)[C@H](O)[C@H]4O)[C@@H]2CC[C@]1(O[C@@H]1O[C@H](CO)[C@@H](O)[C@H](O)[C@H]1O[C@@H]1O[C@H](CO)[C@@H](O)[C@H](O)[C@H]1O)C3 [stevioside]
times sweeter than sucrose [1]: about 200 times
